{
  "source": "patent US20120101083A1",
  "about": "“S1P1 AGONISTS COMPRISING A BICYCLIC N-CONTAINING RING” (GLAXO GROUP LIMITED, priority 2009, published 2012)",
  "note": "Structures can show the parent of a compound that is named as a salt.",
  "data": [
    {"molecular_target": "T1, S1P1 receptor (S1P1 expressing RH7777 membranes) (Homo sapiens, UniProt P21453)", "T1 construct": "expressed in transfected cells; host or cells: RH7777 cells (membranes)", "T1 sequence (P21453 whole entry)": "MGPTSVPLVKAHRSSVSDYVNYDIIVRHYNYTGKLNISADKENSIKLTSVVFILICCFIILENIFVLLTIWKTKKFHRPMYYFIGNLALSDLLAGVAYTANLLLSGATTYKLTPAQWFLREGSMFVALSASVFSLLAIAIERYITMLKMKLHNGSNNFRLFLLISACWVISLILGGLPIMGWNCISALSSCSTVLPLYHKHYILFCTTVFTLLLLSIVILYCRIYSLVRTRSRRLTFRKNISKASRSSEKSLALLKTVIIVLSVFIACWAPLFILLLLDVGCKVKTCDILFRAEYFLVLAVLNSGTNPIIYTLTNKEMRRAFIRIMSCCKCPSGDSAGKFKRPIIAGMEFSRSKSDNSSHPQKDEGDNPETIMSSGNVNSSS", "test": "S1P1 GTPγS assay", "assay_type": "biochemical", "settings": "S1P1 GTPγS assay, first format, [35S]-GTPγS 0.5 nM", "method": "(§1) The potencies and efficacies of the compounds of this invention for the S1P1 receptor can be determined by GTPγS assay performed on the human cloned receptor as described herein.\n(§2) Membrane preparation for S1P1 GTPγS assay\n(§3) All steps were performed at 4° C. Cells were homogenised within a glass Waring blender for 2 bursts of 15 secs in 200 mls of buffer (50 mM HEPES, 1 mM leupeptin, 25 μg/ml bacitracin, 1 mM EDTA, 1 mM PMSF, 2 μM pepstatin A). The blender was plunged into ice for 5 mins after the first burst and 10-40 mins after the final burst to allow foam to dissipate. The material was then spun at 500 g for 20 mins and the supernatant spun for 36 mins at 48,000 g. The pellet was resuspended in the same buffer as above but without PMSF and pepstatin A. The material was then forced through a 0.6 mm needle, made up to the required volume, (usually x4 the volume of the original cell pellet), aliquoted and stored frozen at −80° C.\n(§4) S1P1 expressing RH7777 membranes (1.5 μg/well) membranes (1.5 μg/well) were homogenised by passing through a 23 G needle. These were then adhered to WGA-coated SPA beads (0.125 mg/well) in assay buffer (HEPES 20 mM, MgCl2 10 mM, NaCl 100 mM and pH adjusted to 7.4 using KOH 5M). GDP 10 μM FAC and saponin 90 μg/ml FAC were also added\n(§5) After 30 minutes precoupling on ice, the bead and membrane suspension was dispensed into white Greiner polypropylene LV 384-well plates (5 μl/well), containing […] of compound. 5 μl/well [^35S]-GTPγS (0.5 nM for S1P1 or 0.3 nM for S1P3 final radioligand concentration) made in assay buffer was then added to the plates. The final assay cocktail (10.1 μl) was then sealed, spun on a centrifuge, then read immediately on a Viewlux instrument.\n(§6) Alternatively, after 30 minutes precoupling on ice, the bead and membrane suspension was mixed with ^35S]-GTPγS (0.5 nM final radioligand concentration) in assay buffer (HEPES 20 mM, MgCl2 10 mM, NaCl 100 mM and pH adjusted to 7.4 using KOH 5M) in a 1:1 ratio. The bead, membrane and radioligand suspension was dispensed into white Greiner polypropylene low volume 384-well plates (10 μl/well), containing 0.1 μl of a solution of test compound in 100% DMSO. The final assay cocktail (10.1 μl) was then sealed, spun on a centrifuge, then read immediately on a Viewlux instrument.", "units": {"EC50": "nM"}, "values": [
      {"smiles": "Cc1c(-c2nnc(-c3ccc(OC(C)C)c(C#N)c3)s2)ccc2c1CCN(CC(O)CO)C2", "note": "(centres unmarked) [Example 18, 5-{5-[2-(2,3-Dihydroxypropyl)-5-methyl-1,2,3,4-tetrahydro-6-isoquinolinyl]-1,3,4-thiadiazol-2-yl}-2-[(1-methylethyl)oxy]benzonitrile]", "EC50": 2000}
    ]},
    {"molecular_target": "T1, S1P1 receptor (S1P1 expressing RH7777 membranes)", "test": "S1P1 GTPγS assay", "assay_type": "biochemical", "settings": "tested in one of the above S1P1 assays (two GTPγS formats)", "method": "as §1, §2, §3, §4, §5, §6", "units": {"EC50": "nM"}, "values": [
      {"smiles": "Cc1c(-c2noc(-c3ccc(OC(C)C)c(C#N)c3)n2)ccc2c1CCN(C(=O)[C@](C)(N)CO)C2", "note": "[Example 85, 2-[(1-methylethyl)oxy]-5-{3-[5-methyl-2-(2-methyl-D-seryl)-1,2,3,4-tetrahydro-6-isoquinolinyl]-1,2,4-oxadiazol-5-yl}benzonitrile]", "EC50": "≤ 100"},
      {"smiles": "Cc1c(-c2noc(-c3ccc(OC(C)C)c(C#N)c3)n2)ccc2c1CCN(C(CO)CO)C2", "note": "[Example 65, 5-(3-{2-[2-hydroxy-1-(hydroxymethyl)ethyl]-5-methyl-1,2,3,4-tetrahydro-6-isoquinolinyl}-1,2,4-oxadiazol-5-yl)-2-[(1-methylethyl)oxy]benzonitrile]", "EC50": "≤ 1000"},
      {"smiles": "Cc1c(-c2noc(-c3ccc(OC(C)C)c(C#N)c3)n2)ccc2c1CCN(C(CO)CO)C2", "note": "[Example 66, 5-(3-{2-[2-hydroxy-1-(hydroxymethyl)ethyl]-5-methyl-1,2,3,4-tetrahydro-6-isoquinolinyl}-1,2,4-oxadiazol-5-yl)-2-[(1-methylethyl)oxy]benzonitrile hydrochloride]", "EC50": "≤ 100"},
      {"smiles": "CC(C)Nc1ccc(-c2nc(-c3ccc4c(c3)CCN(C(=O)CN)CC4)no2)cc1C#N", "note": "[Example 52, 5-[3-(3-glycyl-2,3,4,5-tetrahydro-1H-3-benzazepin-7-yl)-1,2,4-oxadiazol-5-yl]-2-[(1-methylethyl)amino]benzonitrile]", "EC50": "≤ 100"},
      {"smiles": "CCCNc1ccc(-c2nc(-c3ccc4c(c3)CCN(CC(O)CO)CC4)no2)cc1C#N", "note": "(centres unmarked) [Example 50, 5-{3-[3-(2,3-dihydroxypropyl)-2,3,4,5-tetrahydro-1H-3-benzazepin-7-yl]-1,2,4-oxadiazol-5-yl}-2-(propylamino)benzonitrile]", "EC50": "≤ 100"},
      {"smiles": "CC(C)Oc1ccc(-c2nc(-c3ccc4c(c3)CCN(C(=O)[C@@H](N)[C@@H](C)O)CC4)no2)cc1C#N", "note": "[Example 59, 2-[(1-methylethyl)oxy]-5-[3-(3-L-threonyl-2,3,4,5-tetrahydro-1H-3-benzazepin-7-yl)-1,2,4-oxadiazol-5-yl]benzonitrile]", "EC50": "≤ 100"},
      {"smiles": "CC(C)Oc1ccc(-c2nc(-c3cccc4c3CCN(CCC(N)=O)CC4)no2)cc1C#N", "note": "[Example 32, 3-[6-(5-{3-Cyano-4-[(1-methylethyl)oxy]phenyl}-1,2,4-oxadiazol-3-yl)-1,2,4,5-tetrahydro-3H-3-benzazepin-3-yl]propanamide]", "EC50": "≤ 1000"},
      {"smiles": "CC(C)Oc1ccc(-c2nc(-c3ccc4c(c3)CCN(CCCO)CC4)no2)cc1C#N", "note": "[Example 20, 5-{3-[3-(3-Hydroxypropyl)-2,3,4,5-tetrahydro-1H-3-benzazepin-7-yl]-1,2,4-oxadiazol-5-yl}-2-[(1-methylethyl)oxy]benzonitrile]", "EC50": "≤ 100"},
      {"smiles": "CCCOc1ccc(-c2nc(-c3ccc4c(c3)CCN(C(=O)CN)CC4)no2)cc1C#N", "note": "[Example 62, 5-[3-(3-glycyl-2,3,4,5-tetrahydro-1H-3-benzazepin-7-yl)-1,2,4-oxadiazol-5-yl]-2-(propyloxy)benzonitrile]", "EC50": "≤ 100"},
      {"smiles": "CC(C)Oc1ccc(-c2nc(-c3ccc4c(c3)CCN(C(=O)CN[C@H](C)CO)CC4)no2)cc1C#N", "note": "[Example 98, 5-[3-(3-{N-(1R)-2-hydroxy-1-methylethyl]glycyl}-2,3,4,5-tetrahydro-1H-3-benzazepin-7-yl)-1,2,4-oxadiazol-5-yl]-2-[(1-methylethyl)oxy]benzonitrile hydrochloride]", "EC50": "≤ 10"},
      {"smiles": "Cc1c(-c2noc(-c3ccc(OC(C)C)c(C#N)c3)n2)ccc2c1CCN(C(=O)CN)CC2", "note": "[Example 140, 5-[3-(3-glycyl-6-methyl-2,3,4,5-tetrahydro-1H-3-benzazepin-7-yl)-1,2,4-oxadiazol-5-yl]-2-[(1-methylethyl)oxy]benzonitrile hydrochloride]", "EC50": "≤ 100"},
      {"smiles": "CC(C)Oc1ccc(-c2nc(-c3cccc4c3CCN(CCCO)CC4)no2)cc1C#N", "note": "[Example 33, 5-{3-[3-(3-Hydroxypropyl)-2,3,4,5-tetrahydro-1H-3-benzazepin-6-yl]-1,2,4-oxadiazol-5-yl}-2-[(1-methylethyl)oxy]benzonitrile]", "EC50": "≤ 100"},
      {"smiles": "CCOc1ncc(-c2nc(-c3ccc4c(c3)CCN(C(CO)CO)CC4)no2)cc1C#N", "note": "[Example 110, 2-(ethyloxy)-5-(3-{3-[2-hydroxy-1-(hydroxymethyl)ethyl]-2,3,4,5-tetrahydro-1H-3-benzazepin-7-yl}-1,2,4-oxadiazol-5-yl)-3-pyridinecarbonitrile]", "EC50": "≤ 1000"},
      {"smiles": "COC(=O)NCCCN1CCc2ccc(-c3noc(-c4ccc(OC(C)C)c(C#N)c4)n3)cc2CC1", "note": "[Example 102, methyl {3-[7-(5-{3-cyano-4-[(1-methylethyl)oxy]phenyl}-1,2,4-oxadiazol-3-yl)-1,2,4,5-tetrahydro-3H-3-benzazepin-3-yl]propyl}carbamate]", "EC50": "≤ 1000"},
      {"smiles": "CC(C)Oc1ccc(-c2nnc(-c3cccc4c3CCN(CCO)C4)s2)cc1C#N", "note": "[Example 38, 5-{5-[2-(2-hydroxyethyl)-1,2,3,4-tetrahydro-5-isoquinolinyl]-1,3,4-thiadiazol-2-yl}-2-[(1-methylethyl)oxy]benzonitrile]", "EC50": "≤ 1000"},
      {"smiles": "CC(C)Oc1ccc(-c2nc(-c3cccc4c3CCN(CC(N)=O)CC4)no2)cc1C#N", "note": "[Example 31, 2-[6-(5-{3-Cyano-4-[(1-methylethyl)oxy]phenyl}-1,2,4-oxadiazol-3-yl)-1,2,4,5-tetrahydro-3H-3-benzazepin-3-yl]acetamide]", "EC50": "≤ 1000"},
      {"smiles": "N#Cc1cc(-c2nc(-c3ccc4c(c3)CCN(CC(O)CO)CC4)no2)ccc1N1CCC(F)C1", "note": "(centres unmarked) [Example 55, 5-{3-[3-(2,3-dihydroxypropyl)-2,3,4,5-tetrahydro-1H-3-benzazepin-7-yl]-1,2,4-oxadiazol-5-yl}-2-(3-fluoro-1-pyrrolidinyl)benzonitrile]", "EC50": "≤ 1000"},
      {"smiles": "Cc1c(-c2nnc(-c3ccc(OC(C)C)c(C#N)c3)s2)ccc2c1CCN(CC(O)CO)C2", "note": "(centres unmarked) [Example 18, 5-{5-[2-(2,3-Dihydroxypropyl)-5-methyl-1,2,3,4-tetrahydro-6-isoquinolinyl]-1,3,4-thiadiazol-2-yl}-2-[(1-methylethyl)oxy]benzonitrile]", "EC50": "> 10000"},
      {"smiles": "CC(C)Oc1ccc(-c2nc(-c3ccc4c(c3)CCN(C(=O)[C@](C)(N)CO)CC4)no2)cc1C#N", "note": "[Example 84, 2-[(1-methylethyl)oxy]-5-{3-[3-(2-methyl-D-seryl)-2,3,4,5-tetrahydro-1H-3-benzazepin-7-yl]-1,2,4-oxadiazol-5-yl}benzonitrile]", "EC50": "≤ 1000"},
      {"smiles": "CCCOc1ccc(-c2nc(-c3ccc4c(c3)CCN(CC(O)CO)CC4)no2)cc1C#N", "note": "(centres unmarked) [Example 51, 5-{3-[3-(2,3-dihydroxypropyl)-2,3,4,5-tetrahydro-1H-3-benzazepin-7-yl]-1,2,4-oxadiazol-5-yl}-2-(propyloxy)benzonitrile]", "EC50": "≤ 100"},
      {"smiles": "CC(C)Nc1ccc(-c2nc(-c3ccc4c(c3)CCN(CC(O)CO)CC4)no2)cc1C#N", "note": "(centres unmarked) [Example 49, 5-{3-[3-(2,3-dihydroxypropyl)-2,3,4,5-tetrahydro-1H-3-benzazepin-7-yl]-1,2,4-oxadiazol-5-yl}-2-[(1-methylethyl)amino]benzonitrile]", "EC50": "≤ 100"},
      {"smiles": "N#Cc1cc(-c2nc(-c3ccc4c(c3)CCN(C(=O)CN)CC4)no2)ccc1N1CCC(F)C1", "note": "(centres unmarked) [Example 57, 2-(3-fluoro-1-pyrrolidinyl)-5-[3-(3-glycyl-2,3,4,5-tetrahydro-1H-3-benzazepin-7-yl)-1,2,4-oxadiazol-5-yl]benzonitrile]", "EC50": "≤ 1000"},
      {"smiles": "CC(C)Oc1ccc(-c2nc(-c3ccc4c(c3)CCN(CC(O)CO)CC4)no2)cc1C#N", "note": "(centres unmarked) [Example 27, 5-{3-[3-(2,3-Dihydroxypropyl)-2,3,4,5-tetrahydro-1H-3-benzazepin-7-yl]-1,2,4-oxadiazol-5-yl}-2-[(1-methylethyl)oxy]benzonitrile]", "EC50": "≤ 100"},
      {"smiles": "CC(C)Oc1ncc(-c2nc(-c3ccc4c(c3)CCN(C[C@H](O)CO)CC4)no2)cc1C#N", "note": "[Example 96, 5-(3-{3-[(2S)-2,3-dihydroxypropyl]-2,3,4,5-tetrahydro-1H-3-benzazepin-7-yl}-1,2,4-oxadiazol-5-yl)-2-[(1-methylethyl)oxy]-3-pyridinecarbonitrile]", "EC50": "≤ 10"},
      {"smiles": "Cc1c(-c2nnc(-c3ccc(OC(C)C)c(C#N)c3)s2)ccc2c1CCN(CCO)C2", "note": "[Example 15, 5-{5-[2-(2-Hydroxyethyl)-5-methyl-1,2,3,4-tetrahydro-6-isoquinolinyl]-1,3,4-thiadiazol-2-yl}-2-[(1-methylethyl)oxy]benzonitrile]", "EC50": "≤ 100"}
    ]}
  ]
}
